Columns and labels:
Test in all cases: Bliss excess, mean over the matrix (fraction); higher = more synergy
[1] = tested on: K-562 (Chronic Myelogenous Leukemia)
Method in brief: (§1)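 Cell lines in DMEM/F12 or RPMI with 10% FBS were plated in 1536-well plates, held 24 hours at 37°C, 5% CO2, then given two-drug dose matrices for 72 hours (DMSO typically 0.2%). Viability was read by CellTiter-Glo 2.0 luminescence and scaled as inhibition from 0 (vehicle wells) to 1 (blank wells). Combination Emax is the second-highest inhibition in the matrix; Bliss excess is observed combination effect minus expected EA + EB − EA·EB, EA and EB being single-agent effects.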

[2] = tested on: COLO-678 (Colorectal Carcinoma)
Method in brief: as §1

[3] = tested on: KYSE-180 (Esophageal Squamous Cell Carcinoma)
Method in brief: as §1

[4] = tested on: NCI-H1792 (Lung Adenocarcinoma)
Method in brief: as §1

[5] = tested on: EVSA-T (Breast Carcinoma)
Method in brief: as §1

[6] = tested on: KCL-22 (Chronic Myelogenous Leukemia)
Method in brief: as §1

[7] = tested on: SW837 (Colorectal Carcinoma)
Method in brief: as §1

[8] = tested on: DND-41 (T-Lymphoblastic Leukemia)
Method in brief: as §1

[9] = tested on: HDQ-P1 (Breast Carcinoma)
Method in brief: as §1

[10] = tested on: TE-6 (Esophageal Squamous Cell Carcinoma)
Method in brief: as §1

[11] = tested on: MFM-223 (Breast Carcinoma)
Method in brief: as §1

[12] = tested on: PANC-08-13 (Pancreatic Carcinoma)
Method in brief: as §1

[13] = tested on: U251 (Low Grade Glioma)
Method in brief: as §1

[14] = tested on: LN-18 (Glioblastoma)
Method in brief: as §1

[15] = tested on: P12-ICHIKAWA (T-Lymphoblastic Leukemia)
Method in brief: as §1

[16] = tested on: SR (Other Blood Carcinomas)
Method in brief: as §1

[17] = tested on: TOV-112D (Ovarian Carcinoma)
Method in brief: as §1

[18] = tested on: TC-71 (Ewing's Sarcoma)
Method in brief: as §1

[19] = tested on: L-540 (Hodgkin's Lymphoma)
Method in brief: as §1

[20] = tested on: DiFi (Colorectal Carcinoma)
Method in brief: as §1

| SMILES | Bliss excess [1] | Bliss excess [2] | Bliss excess [3] | Bliss excess [4] | Bliss excess [5] | Bliss excess [6] | Bliss excess [7] | Bliss excess [8] | Bliss excess [9] | Bliss excess [10] | Bliss excess [11] | Bliss excess [12] | Bliss excess [13] | Bliss excess [14] | Bliss excess [15] | Bliss excess [16] | Bliss excess [17] | Bliss excess [18] | Bliss excess [19] | Bliss excess [20] |
| --- | --- | --- | --- | --- | --- | --- | --- | --- | --- | --- | --- | --- | --- | --- | --- | --- | --- | --- | --- | --- |
| COc1cc2ncnc(Nc3ccc(F)c(Cl)c3)c2cc1OCCCN1CCOCC1 [Gefitinib] + CC(C)n1c(=O)n(C)c2cnc3cc(F)c(-c4ccc(OCCCN5CCCCC5)nc4)cc3c21 [AZD1390] (first compound max 10 µM, 7x7, partner max 0.3 µM) | -0.0304 | -0.111 | -0.0621 | -0.0422 | -0.0306 | -0.0573 | -0.06 | -0.0309 | -0.114 | -0.117 | -0.0681 | -0.0511 | -0.0624 | -0.033 | -0.0152 | -0.0109 | -0.0392 | -0.0927 | -0.0591 | -0.0882 |
| NC1(C(=O)N[C@@H](CCO)c2ccc(Cl)cc2)CCN(c2ncnc3[nH]ccc23)CC1 [Capivasertib] + C[C@@H]1COCCN1C2=NC(=NC(=C2)C3(CC3)[S@](=N)(=O)C)C4=C5C=CNC5=NC=C4 [AZD6738] (first compound max 10 µM, 7x7, partner max 10 µM) | -0.0383 | -0.051 | -0.0866 | -0.0208 | 0.0185 | 0.0044 | -0.0862 | -0.0221 | -0.0178 | -0.0476 | -0.0626 | 0.0128 | -0.0006 | -0.0463 | 0.0043 | 0.016 | -0.0632 | 0.0295 | -0.0059 | -0.122 |
| NC1(C(=O)N[C@@H](CCO)c2ccc(Cl)cc2)CCN(c2ncnc3[nH]ccc23)CC1 [Capivasertib] + CC(C)n1c(=O)n(C)c2cnc3cc(F)c(-c4ccc(OCCCN5CCCCC5)nc4)cc3c21 [AZD1390] (first compound max 10 µM, 7x7, partner max 0.3 µM) | 0.0077 | -0.0754 | -0.0509 | -0.0625 | -0.0326 | -0.0116 | -0.0461 | -0.0595 | -0.0442 | -0.134 | -0.0098 | -0.0908 | -0.0549 | -0.0325 | -0.018 | -0.0452 | -0.0276 | -0.0567 | 0.0167 | -0.0436 |
| Cn1cnc2c(F)c(Nc3ccc(Br)cc3Cl)c(C(=O)NOCCO)cc21 [Selumetinib] + CC(C)n1c(=O)n(C)c2cnc3cc(F)c(-c4ccc(OCCCN5CCCCC5)nc4)cc3c21 [AZD1390] (first compound max 10 µM, 7x7, partner max 0.3 µM) | -0.0345 | -0.0409 | -0.042 | -0.0075 | -0.0185 | 0.0847 | -0.0343 | -0.0022 | -0.0456 | -0.0528 | -0.033 | -0.0365 | -0.0361 | -0.0148 | 0.0544 | -0.0171 | -0.0262 | -0.0211 | -0.0407 | 0.0004 |
| CN(CCO)CC[C@H](CSc1ccccc1)Nc1ccc(S(=O)(=O)NC(=O)c2ccc(N3CCC([C@@H](O)c4ccccc4-c4ccc(Cl)cc4)CC3)cc2)cc1S(=O)(=O)C(F)(F)F [AZD4320] + CN(C)CCCOc1ccc(-c2ccc3ncc4c(c3c2)n(C2CCOCC2)c(=O)n4C)cn1 [AZD0156] (first compound max 1 µM, 7x7, partner max 1 µM) | -0.0027 | -0.081 | -0.0037 | -0.0144 | -0.0125 | 0.0373 | -0.0322 | -0.0036 | -0.03 | 0.0418 | -0.0347 | -0.0051 | -0.0374 | -0.0015 | 0.024 | 0.0454 | -0.0078 | -0.0112 | 0.0178 | 0.0046 |
| Cn1cnc2c(F)c(Nc3ccc(Br)cc3Cl)c(C(=O)NOCCO)cc21 [Selumetinib] + CCN(CCO)CCCOc1ccc2c(Nc3cc(CC(=O)Nc4cccc(F)c4)[nH]n3)ncnc2c1 [AZD2811] (first compound max 10 µM, 7x7, partner max 1 µM) | 0.0352 | -0.0223 | -0.0408 | 0.0143 | 0.0097 | 0.0941 | -0.0311 | 0.0298 | -0.0538 | -0.0282 | -0.0363 | -0.0278 | -0.034 | -0.0192 | 0.0216 | 0.0128 | -0.01 | 0.0298 | -0.0634 | 0.0371 |
| Cc1c2c(nn1C)CSCc1cc(n(C)n1)CSc1cc(c3ccccc3c1)OCCCc1c(C(=O)O)n(C)c3c-2c(Cl)ccc13 [AZD5991] + C1CN(CCC1(C(=O)N[C@@H](CCO)C2=CC=C(C=C2)Cl)N)C3=NC=NC4=C3C=CN4 [Capivasertib] (first compound max 1 µM, 7x7, partner max 3 µM) | 0.0462 | -0.0078 | 0.0306 | -0.019 | -0.0074 | 0.0067 | -0.0191 | 0.0038 | 0.0072 | -0.0177 | 0.0005 | -0.0235 | 0.0231 | 0.0306 | 0.039 | 0.0447 | -0.0181 | 0.0256 | 0.0152 | 0.0384 |
| CN(CCO)CC[C@H](CSc1ccccc1)Nc1ccc(S(=O)(=O)NC(=O)c2ccc(N3CCC([C@@H](O)c4ccccc4-c4ccc(Cl)cc4)CC3)cc2)cc1S(=O)(=O)C(F)(F)F [AZD4320] + C=CCn1c(=O)c2cnc(Nc3ccc(N4CCN(C)CC4)cc3)nc2n1-c1cccc(C(C)(C)O)n1 [AZD1775] (first compound max 1 µM, partner max 1 µM) | 0.0582 | -0.0459 | 0.0258 | 0.0128 | 0.0394 | 0.0022 | -0.0063 | 0.049 | 0.0886 | 0.0061 | -0.0103 | -0.0019 | -0.0676 | 0.0152 | 0.0899 | 0.254 | -0.0106 | 0.0339 | 0.0594 | 0.007 |
| CC1(C)CCC(CN2CCN(c3ccc(C(=O)NS(=O)(=O)c4ccc(NCC5CCOCC5)c([N+](=O)[O-])c4)c(Oc4cnc5[nH]ccc5c4)c3)CC2)=C(c2ccc(Cl)cc2)C1 [Venetoclax] + C=CCn1c(=O)c2cnc(Nc3ccc(N4CCN(C)CC4)cc3)nc2n1-c1cccc(C(C)(C)O)n1 [AZD1775] (first compound max 1 µM, partner max 1 µM) | 0.0486 | -0.0371 | 0.0264 | 0.0479 | 0.0075 | -0.0114 | 0.0009 | 0.103 | -0.014 | -0.0859 | -0.0987 | -0.0153 | -0.0787 | 0.0062 | 0.0117 | 0.062 | -0.0375 | -0.0215 | 0.069 | -0.0222 |
| COc1nnc2ccc(N3CCC(c4ccc(OCCN5CCN(C)C(=O)[C@H]5C)cc4)CC3)nn12 [AZD5153] + Cc1c2c(nn1C)CSCc1cc(n(C)n1)CSc1cc(c3ccccc3c1)OCCCc1c(C(=O)O)n(C)c3c-2c(Cl)ccc13 [AZD5991] (first compound max 1 µM, 7x7, partner max 1 µM) | -0.0496 | -0.0476 | -0.0033 | -0.0008 | 0.003 | -0.0633 | -0.0411 | 0.0181 | -0.0667 | -0.0701 | -0.0258 | 0.0228 | -0.0253 | -0.0751 | 0.0813 | -0.0275 | 0.0347 | 0.0285 | 0.0062 | -0.0066 |
| CC1(C)CCC(CN2CCN(c3ccc(C(=O)NS(=O)(=O)c4ccc(NCC5CCOCC5)c([N+](=O)[O-])c4)c(Oc4cnc5[nH]ccc5c4)c3)CC2)=C(c2ccc(Cl)cc2)C1 [Venetoclax] + C[C@@H]1COCCN1C2=NC(=NC(=C2)C3(CC3)[S@](=N)(=O)C)C4=C5C=CNC5=NC=C4 [AZD6738] (first compound max 1 µM, 7x7, partner max 10 µM) | -0.0039 | -0.0293 | -0.0173 | -0.018 | 0.0144 | -0.0088 | -0.003 | 0.0191 | -0.0327 | -0.0127 | -0.0604 | -0.0482 | -0.0405 | -0.0469 | 0.0418 | -0.0139 | -0.0251 | -0.0299 | 0.028 | -0.0183 |
| CN(CCO)CC[C@H](CSc1ccccc1)Nc1ccc(S(=O)(=O)NC(=O)c2ccc(N3CCC([C@@H](O)c4ccccc4-c4ccc(Cl)cc4)CC3)cc2)cc1S(=O)(=O)C(F)(F)F [AZD4320] + C[C@@H]1COCCN1C2=NC(=NC(=C2)C3(CC3)[S@](=N)(=O)C)C4=C5C=CNC5=NC=C4 [AZD6738] (first compound max 1 µM, 7x7, partner max 10 µM) | -0.0245 | -0.0616 | -0.0042 | -0.0647 | -0.0105 | 0.0092 | -0.0618 | -0.0028 | 0.0268 | -0.0927 | -0.0367 | -0.019 | -0.0272 | -0.0705 | -0.0133 | -0.0068 | 0.0134 | 0.075 | 0.0082 | -0.0044 |

Reference: the supplement of paper PMC11061612
